Results: patent US10577373B2, “TYK2 inhibitors and uses thereof” (Nimbus Lakshmi, Inc., priority 2017, dated 2020)

What was measured:
[1] = system: GM-CSF induced STAT5 phosphorylation mediated by the JAK2/JAK2 homdimeric complex; assay: GM-CSF Induced pSTAT5 in Human PBMC; conditions: Homo sapiens, PBMC, 20 min, read-out: PBMC_GMCSF_pSTAT5 IC50, human PBMC; GM-CSF 5 ng/mL for 20 minutes; pSTAT5
Source text: Human PBMC are isolated from buffy coat and are stored frozen for assays as needed.

[2] = system: IL-12 induced STAT4 phophorylation mediated by Tyk2/JAK2 (heterodimeric complex); assay: IL-12 Induced pSTAT4 in Human PBMC; type: cell-based; conditions: 1.7 ng/mL IL-12
Source text: The IL-12 Induced pSTAT4 assay evaluates the inhibition of IL-12 induced STAT4 phophorylation mediated by Tyk2/JAK2 (heterodimeric complex).

IC50 [1] [nM] | IC50 [2] [nM] | Structure (SMILES)
> 50000 | < 100 | CNc1cc(Nc2cccn(-c3ccc(F)cn3)c2=O)nc2c(C(=O)NC3CCC3)cnn12 [I-238]
> 2500 | < 100 | CNc1cc(Nc2cccn(-c3ccc(C4CC4)nn3)c2=O)nc2c(C(=O)NC3CCC3)cnn12 [I-240]
> 2500 | < 100 | CNc1cc(Nc2cccn(-c3ccc(F)cc3)c2=O)nc2c(C(=O)NC3CCC3)cnn12 [I-246]
> 2500 | < 100 | CNc1cc(Nc2cccn(-c3ncc(C)s3)c2=O)nc2c(C(=O)NC3CC3)cnn12 [I-261, N-cyclopropyl-7-(methylamino)-5-((1-(5-methylthiazol-2-yl)-2-oxo-1,2-dihydropyridin-3-yl)amino)pyrazolo[1,5-a]pyrimidine-3-carboxamide]
> 2500 | < 100 | CNc1cc(Nc2cccn(-c3ncc(C)s3)c2=O)nc2c(C(=O)N[C@H]3C[C@H]3F)cnn12 [I-262]
> 2500 | < 100 | CNc1cc(Nc2cccn(-c3ncc(C)s3)c2=O)nc2c(C(=O)NC3CCC3)cnn12 [I-263]
> 12500 | < 100 | CNc1cc(Nc2cccn(-c3ccc(OC)cn3)c2=O)nc2c(C(=O)NC3CCC3)cnn12 [I-266]
> 50000 | < 100 | CNc1cc(Nc2cccn(CCOC)c2=O)nc2c(C(=O)NC3CCC3)cnn12 [I-269]

More lines, now with the values behind:

Structure (SMILES) | IC50 [1] [nM] | IC50 [2] [nM]
CNc1cc(Nc2cc(C)cn(-c3cnn(C)c3)c2=O)nc2c(C(=O)N[C@H]3C[C@H]3F)cnn12 [I-235] | > 2500 | < 100
CNc1cc(Nc2cccc(N3CCOC3=O)n2)nc2c(C(=O)N[C@H]3C[C@H]3F)cnn12 [I-236] | > 2500 | < 100
CNc1cc(Nc2cccn(-c3nccs3)c2=O)nc2c(C(=O)N[C@H]3C[C@H]3F)cnn12 [I-243] | > 2500 | < 100
CNc1cc(Nc2cccc(N3CCCC3=O)n2)nc2c(C(=O)N[C@H]3C[C@H]3F)cnn12 [I-244] | > 12500 | < 100
CNc1cc(Nc2cc(C)cn(-c3ccn(C)n3)c2=O)nc2c(C(=O)N[C@H]3C[C@H]3F)cnn12 [I-250] | > 12500 | < 100
CNc1cc(-c2cn(C(C)C)c3ncc(C)cc23)nc2c(C(N)=O)cnn12 [I-255] | > 50000 | < 100
[2H]C([2H])([2H])Oc1ncc(C)cc1Nc1cc(NC)n2ncc(C(=O)NC3CC3)c2n1 [I-258] | > 50000 | < 100
[2H]C([2H])([2H])Oc1ncc(C)cc1Nc1cc(NC)n2ncc(C(=O)N[C@H]3C[C@H]3F)c2n1 [I-259] | > 12500 | < 100
CNc1cc(Nc2cccn(-c3ccc(OC)cn3)c2=O)nc2c(C(=O)N[C@H]3C[C@H]3F)cnn12 [I-265] | > 12500 | < 100
CNc1cc(-c2cn(C(C)C)c3ncc(Cl)cc23)nc2c(C(N)=O)cnn12 [I-272, 5-(5-chloro-1-isopropyl-1H-pyrrolo[2,3-b]pyridin-3-yl)-7-(methylamino) pyrazolo[1,5-a]pyrimidine-3-carboxamide] | > 12500 | < 100
CNc1cc(Nc2cc(F)cnc2OC2CC2)nc2c(C(=O)NC3CC3)cnn12 [I-274] | > 12500 | < 100
CNc1cc(Nc2cc(F)cnc2OC2CC2)nc2c(C(=O)N[C@H]3C[C@H]3F)cnn12 [I-275] | > 50000 | < 100
CNc1cc(Nc2cc(F)cnc2OC2CC2)nc2c(C(=O)NC3CCC3)cnn12 [I-276] | > 50000 | < 100
CNc1cc(Nc2cc(C)cnc2OC2CC2)nc2c(C(=O)NC3CC3)cnn12 [I-277] | > 50000 | 100 to 500
CNc1cc(Nc2cc(C)cnc2OCCOC)nc2c(C(=O)NC3CC3)cnn12 [I-281] | > 2500 | 100 to 500
CNc1cc(Nc2cc(C)cnc2OCCOC)nc2c(C(=O)NC3CCC3)cnn12 [I-282] | > 2500 | 100 to 500
CNc1cc(Nc2cc(F)cnc2OC)nc2c(C(=O)NCC(C)(C)CO)cnn12 [I-283] | > 50000 | < 100
